# Experimental data from patent US8435980B2 (AbbVie Inc., priority 2009, dated 2013).
# Molecular target: T1, Cdc7 (BEV coexpressed huCDC7/DBF4) (Homo sapiens, UniProt O00311)
# T1 construct: made in house; host or cells: BEV (baculovirus expression vector) co-expression; insect cells are implied but no cell line is named
# Experiment: Cdc7 enzyme inhibition assay ([33P]ATP, biotinylated peptide substrate, FlashPlate)
# Format: biochemical
# Conditions: Table 3; enzyme inhibition data (Ki)
# Procedure: Cdc7 (BEV coexpressed huCDC7/DBF4) is prepared internally. Cdc7 assays are conducted as follows with final concentrations as listed. […] Reactions are quenched after 1 hr by the addition of 90 μL stop buffer (50 mM EDTA, 2M NaCl). […] (Ki) for exemplary compounds.
# T1 sequence (O00311 whole entry): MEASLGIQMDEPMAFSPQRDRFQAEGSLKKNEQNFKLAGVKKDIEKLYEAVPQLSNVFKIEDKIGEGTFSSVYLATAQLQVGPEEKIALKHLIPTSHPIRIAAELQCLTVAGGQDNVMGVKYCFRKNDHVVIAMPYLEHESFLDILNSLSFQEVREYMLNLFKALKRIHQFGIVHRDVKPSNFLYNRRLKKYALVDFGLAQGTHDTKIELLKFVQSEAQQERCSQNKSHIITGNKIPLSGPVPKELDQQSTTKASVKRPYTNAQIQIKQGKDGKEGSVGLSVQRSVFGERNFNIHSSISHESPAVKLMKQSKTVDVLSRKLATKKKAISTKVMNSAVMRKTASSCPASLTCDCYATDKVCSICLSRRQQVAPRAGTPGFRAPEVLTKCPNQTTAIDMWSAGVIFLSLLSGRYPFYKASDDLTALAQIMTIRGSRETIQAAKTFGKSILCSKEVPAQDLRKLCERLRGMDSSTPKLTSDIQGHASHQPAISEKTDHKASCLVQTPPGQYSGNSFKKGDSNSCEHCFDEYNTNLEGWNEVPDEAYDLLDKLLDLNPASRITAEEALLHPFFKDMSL
# T1 sequence (Q9UBU7 whole entry partner): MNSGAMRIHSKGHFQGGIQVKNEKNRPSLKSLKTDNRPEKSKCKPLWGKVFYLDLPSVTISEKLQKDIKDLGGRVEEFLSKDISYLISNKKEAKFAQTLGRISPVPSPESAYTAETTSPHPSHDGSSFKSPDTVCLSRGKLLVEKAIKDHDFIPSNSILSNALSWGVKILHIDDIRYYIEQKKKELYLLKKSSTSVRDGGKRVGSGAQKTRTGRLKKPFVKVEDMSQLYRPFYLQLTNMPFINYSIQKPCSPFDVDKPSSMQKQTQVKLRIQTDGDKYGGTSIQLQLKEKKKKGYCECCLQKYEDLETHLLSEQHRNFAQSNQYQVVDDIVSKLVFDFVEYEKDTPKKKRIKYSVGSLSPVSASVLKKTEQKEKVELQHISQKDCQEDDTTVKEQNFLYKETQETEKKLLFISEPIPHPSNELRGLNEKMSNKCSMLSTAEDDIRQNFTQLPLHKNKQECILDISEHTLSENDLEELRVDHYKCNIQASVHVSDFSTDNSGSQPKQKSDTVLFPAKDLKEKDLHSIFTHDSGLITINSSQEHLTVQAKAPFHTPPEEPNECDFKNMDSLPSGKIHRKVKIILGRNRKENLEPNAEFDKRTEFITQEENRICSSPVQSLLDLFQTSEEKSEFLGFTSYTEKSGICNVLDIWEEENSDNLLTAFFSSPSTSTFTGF
row,Compound,Ki [nM]
1,"Cc1cnc2[nH]cc(-c3cc(Cl)nc(NC4CCCCC4)c3)c2c1 [Example 204, 6-chloro-N-cyclohexyl-4-(5-methyl-1H-pyrrolo[2,3-b]pyridin-3-yl)pyridin-2-amine]",< 10
2,"Clc1cc(-c2c[nH]c3ncccc23)cc(Nc2ccccc2)n1 [Example 205, 6-chloro-N-phenyl-4-(1H-pyrrolo[2,3-b]pyridin-3-yl)pyridin-2-amine]",< 10
3,"COc1cc(N2CCC(N3CCN(C)CC3)CC2)ccc1Nc1cc(-c2c[nH]c3ncccc23)cc(Cl)n1 [Example 206, 6-chloro-N-{2-methoxy-4-[4-(4-methylpiperazin-1-yl)piperidin-1-yl]phenyl}-4-(1H-pyrrolo[2,3-b]pyridin-3-yl)pyridin-2-amine]",< 10
4,"C=CCNC(=O)NCCS(=O)(=O)N[C@H]1CC[C@H](Nc2cc(-c3c[nH]c4ncccc34)cc(Cl)n2)CC1 [Example 208, N-(trans-4-{[6-chloro-4-(1H-pyrrolo[2,3-b]pyridin-3-yl)pyridin-2-yl]amino}cyclohexyl)-2-[(prop-2-en-1-ylcarbamoyl)amino}ethanesulfonamide]",< 10
5,"OCCn1cc(-c2cnc3[nH]cc(-c4cc(Cl)nc(NC5CCCCC5)c4)c3c2)cn1 [Example 212, 2-(4-{3-[2-chloro-6-(cyclohexylamino)pyridin-4-yl]-1H-pyrrolo[2,3-b]pyridin-5-yl}-1H-pyrazol-1-yl)ethanol]",< 10
6,"COc1cnc2[nH]cc(-c3cc(Cl)nc(N[C@H]4CC[C@H](N)CC4)c3)c2c1 [Example 213, trans-N-[6-chloro-4-(5-methoxy-1H-pyrrolo[2,3-b]pyridin-3-yl)pyridin-2-yl]cyclohexane-1,4-diamine]",< 10
7,"Clc1cc(-c2c[nH]c3ncc(-c4cccnc4)cc23)cc(NC2CCCCC2)n1 [Example 214, 6-chloro-N-cyclohexyl-4-[5-(pyridin-3-yl)-1H-pyrrolo[2,3-b]pyridin-3-yl]pyridin-2-amine]",< 10
8,"Clc1cc(-c2c[nH]c3ncc(-c4ccsc4)cc23)cc(NC2CCCCC2)n1 [Example 215, 6-chloro-N-cyclohexyl-4-[5-(thiophen-3-yl)-1H-pyrrolo[2,3-b]pyridin-3-yl]pyridin-2-amine]",10 to 100
9,"COc1cnc2[nH]cc(-c3cc(Cl)nc(N[C@H]4CC[C@H](NC(=O)C5CC5)CC4)c3)c2c1 [Example 216, N-(trans-4-{[6-chloro-4-(5-methoxy-1H-pyrrolo[2,3-b]pyridin-3-yl)pyridin-2-yl]amino}cyclohexyl)cyclopropanecarboxamide]",< 10
10,"COc1cnc2[nH]cc(-c3cc(Cl)nc(N[C@H]4CC[C@H](NC(=O)C5CN(Cc6ccccc6)C5)CC4)c3)c2c1 [Example 217, 1-benzyl-N-(trans-4-{[6-chloro-4-(5-methoxy-1H-pyrrolo[2,3-b]pyridin-3-yl)pyridin-2-yl]amino}cyclohexyl)azetidine-3-carboxamide]",< 10
11,"COc1cnc2[nH]cc(-c3cc(Cl)nc(N[C@H]4CC[C@H](NS(=O)(=O)C5CC5)CC4)c3)c2c1 [Example 218, N-(trans-4-{[6-chloro-4-(5-methoxy-1H-pyrrolo[2,3-b]pyridin-3-yl)pyridin-2-yl]amino}cyclohexyl)cyclopropanesulfonamide]",< 10
12,"COc1cnc2[nH]cc(-c3cc(Cl)nc(N[C@H]4CC[C@H](NS(C)(=O)=O)CC4)c3)c2c1 [Example 220, N-(trans-4-{[6-chloro-4-(5-methoxy-1H-pyrrolo[2,3-b]pyridin-3-yl)pyridin-2-yl]amino}cyclohexyl)methanesulfonamide]",< 10
13,"CN1CCN(Cc2cccc(-c3cnc4[nH]cc(-c5cc(Cl)nc(NC6CCCCC6)c5)c4c3)c2)CC1 [Example 221, 6-chloro-N-cyclohexyl-4-(5-{3-[(4-methylpiperazin-1-yl)methyl]phenyl}-1H-pyrrolo[2,3-b]pyridin-3-yl)pyridin-2-amine]",< 10
14,"NS(=O)(=O)c1cccc(-c2cnc3[nH]cc(-c4cc(Cl)nc(NC5CCCCC5)c4)c3c2)c1 [Example 222, 3-{3-[2-chloro-6-(cyclohexylamino)pyridin-4-yl]-1H-pyrrolo[2,3-b]pyridin-5-yl}benzenesulfonamide]",< 10
15,"NS(=O)(=O)c1ccc(-c2cnc3[nH]cc(-c4cc(Cl)nc(NC5CCCCC5)c4)c3c2)cc1 [Example 223, 4-{3-[2-chloro-6-(cyclohexylamino)pyridin-4-yl]-1H-pyrrolo[2,3-b]pyridin-5-yl}benzenesulfonamide]",< 10
16,"CCOc1cnc2[nH]cc(-c3cc(Cl)nc(N[C@H]4CC[C@H](N)CC4)c3)c2c1 [Example 224, trans-N-[6-chloro-4-(5-ethoxy-1H-pyrrolo[2,3-b]pyridin-3-yl)pyridin-2-yl]cyclohexane-1,4-diamine]",< 10
17,"Nc1cnc2[nH]cc(-c3cc(Cl)nc(NC4CCCCC4)c3)c2c1 [Example 225, 3-[2-chloro-6-(cyclohexylamino)pyridin-4-yl]-1H-pyrrolo[2,3-b]pyridin-5-amine]",< 10
18,"CC(=O)Nc1cnc2[nH]cc(-c3cc(Cl)nc(NC4CCCCC4)c3)c2c1 [Example 226, N-{3-[2-chloro-6-(cyclohexylamino)pyridin-4-yl]-1H-pyrrolo[2,3-b]pyridin-5-yl}acetamide]",< 10
19,"CNCC(=O)N[C@H]1CC[C@H](Nc2cc(-c3c[nH]c4ncc(OC)cc34)cc(Cl)n2)CC1 [Example 227, N-(trans-4-{[6-chloro-4-(5-methoxy-1H-pyrrolo[2,3-b]pyridin-3-yl)pyridin-2-yl]amino}cyclohexyl)-N^2-methylglycinamide]",< 10
20,"COc1cnc2[nH]cc(-c3cc(Cl)nc(N[C@H]4CC[C@H](NC(=O)C(C)C)CC4)c3)c2c1 [Example 228, N-(trans-4-{[6-chloro-4-(5-methoxy-1H-pyrrolo[2,3-b]pyridin-3-yl)pyridin-2-yl]amino}cyclohexyl)-2-methylpropanamide]",< 10
21,"O=C(O)c1cnc2[nH]cc(-c3cc(Cl)nc(NC4CCCCC4)c3)c2c1 [Example 235, 3-[2-chloro-6-(cyclohexylamino)pyridin-4-yl]-1H-pyrrolo[2,3-b]pyridine-5-carboxylic acid]",< 10

# Continued, values first:
row,Ki [nM],Compound
1,10 to 100,"O=C(N[C@H]1CC[C@H](Nc2cc(-c3c[nH]c4ncccc34)cc(Cl)n2)CC1)c1ccc(OC(F)(F)F)cc1 [Example 203, N-(trans-4-{[6-chloro-4-(1H-pyrrolo[2,3-b]pyridin-3-yl)pyridin-2-yl]-amino}cyclohexyl)-4-(trifluoromethoxy)benzamide]"
2,< 10,"O=C(N[C@H]1CC[C@H](Nc2cc(-c3c[nH]c4ncccc34)cc(Cl)n2)CC1)C1CN(Cc2ccc(Cl)cc2)C1 [Example 207, 1-(4-chlorobenzyl)-N-(trans-4-{[6-chloro-4-(1H-pyrrolo[2,3-b]pyridin-3-yl)pyridin-2-yl]amino}cyclohexyl)azetidine-3-carboxamide]"
3,< 10,"O=C(N[C@H]1CC[C@H](Nc2cc(-c3c[nH]c4ncccc34)cc(Cl)n2)CC1)C1CN(Cc2cccnc2)C1 [Example 209, N-(trans-4-{[6-chloro-4-(1H-pyrrolo[2,3-b]pyridin-3-yl)pyridin-2-yl]amino}cyclohexyl)-1-(pyridin-3-ylmethyl)azetidine-3-carboxamide]"
4,< 10,"O=C(N[C@H]1CC[C@H](Nc2cc(-c3c[nH]c4ncccc34)cc(Cl)n2)CC1)C1CN(Cc2ccc(F)cc2F)C1 [Example 210, N-(trans-4-{[6-chloro-4-(1H-pyrrolo[2,3-b]pyridin-3-yl)pyridin-2-yl]amino}cyclohexyl)-1-(2,4-difluorobenzyl)azetidine-3-carboxamide]"
5,< 10,"Cn1ccc(CN2CC(C(=O)N[C@H]3CC[C@H](Nc4cc(-c5c[nH]c6ncccc56)cc(Cl)n4)CC3)C2)n1 [Example 211, N-(trans-4-{[6-chloro-4-(1H-pyrrolo[2,3-b]pyridin-3-yl)pyridin-2-yl]amino}cyclohexyl)-1-[(1-methyl-1H-pyrazol-3-yl)methyl]azetidine-3-carboxamide]"
6,< 10,"O=C(CN1CCN(c2ccc(F)cc2)CC1)N[C@H]1CC[C@H](Nc2cc(-c3c[nH]c4ncccc34)cc(Cl)n2)CC1 [Example 229, N-(trans-4-{[6-chloro-4-(1H-pyrrolo[2,3-b]pyridin-3-yl)pyridin-2-yl]amino}cyclohexyl)-2-[4-(4-fluorophenyl)piperazin-1-yl]acetamide]"
7,< 10,"O=C(CN1CCN(c2ccncc2)CC1)N[C@H]1CC[C@H](Nc2cc(-c3c[nH]c4ncccc34)cc(Cl)n2)CC1 [Example 230, N-(trans-4-{[6-chloro-4-(1H-pyrrolo[2,3-b]pyridin-3-yl)pyridin-2-yl]amino}cyclohexyl)-2-[4-(pyridin-4-yl)piperazin-1-yl]acetamide]"
8,< 10,"O=C(CN1CCN(C2CCCCC2)CC1)N[C@H]1CC[C@H](Nc2cc(-c3c[nH]c4ncccc34)cc(Cl)n2)CC1 [Example 231, N-(trans-4-{[6-chloro-4-(1H-pyrrolo[2,3-b]pyridin-3-yl)pyridin-2-yl]amino}cyclohexyl)-2-(4-cyclohexylpiperazin-1-yl)acetamide]"
9,< 10,"CCCCN1CCN(CC(=O)N[C@H]2CC[C@H](Nc3cc(-c4c[nH]c5ncccc45)cc(Cl)n3)CC2)CC1 [Example 232, 2-(4-butylpiperazine-1-yl)-N-(trans-4-{[6-chloro-4-(1H-pyrrolo[2,3-b]pyridin-3-yl)pyridin-2-yl]amino}cyclohexyl)acetamide]"
10,< 10,"O=C(CN1CCN(C(=O)c2ccco2)CC1)N[C@H]1CC[C@H](Nc2cc(-c3c[nH]c4ncccc34)cc(Cl)n2)CC1 [Example 233, N-(trans-4-{[6-chloro-4-(1H-pyrrolo[2,3-b]pyridin-3-yl)pyridin-2-yl]amino}cyclohexyl)-2-[4-(furan-2-ylcarbonyl)piperazin-1-yl]acetamide]"
11,< 10,"N#Cc1ccccc1N1CCN(CC(=O)N[C@H]2CC[C@H](Nc3cc(-c4c[nH]c5ncccc45)cc(Cl)n3)CC2)CC1 [Example 234, N-(trans-4-{[6-chloro-4-(1H-pyrrolo[2,3-b]pyridin-3-yl)pyridin-2-yl]amino}cyclohexyl)-2-[4-(2-cyanophenyl)piperazin-1-yl]acetamide]"
